Assay results: US20040258621A1, “Method of treating snoring and other obstructive breathing disorders” (priority 2002, published 2004)
Structures can show the parent of a compound that is named as a salt. Where two headings read alike, the source gives them in different places.

Key:
[1] = tested on: snoring in a nocturnal breathing obstructed person with GERD; test: Case study of a snoring patient with GERD; assay type: in vivo, human; conditions: for beneficial effect on snoring: throughout the subsequent year
Excerpt: A person, 5 feet 3 inches tall and moderately overweight reported a 15-20 year history of progressively increasing snoring. The intensity of their snoring was well documented by their spouse, who experienced disturbed sleep as a result of their spouse's snoring, occasionally requiring them to waken the patient in order for them to obtain relief. The patient gave no history of naso-pharyngeal structural abnormalities or surgery (other than third molar extraction) and had experienced no breathing disorder.
The patient complained to their physician of a chronic scratchiness in their throat, thought to be a result of gastroesophageal reflux disease (GERD). To treat the GERD symptoms, the patient was placed on Prevacid (Lansoprazole) 15 mg once daily.

[2] = +37° C., relative humidity 80%, 6 months; cited from earlier work
[3] = cited from earlier work; for stability in acidic media: acid media
[4] = cited from earlier work
[5] = tested on: outpatients with significant snoring; test: Open label study on 8 outpatients with significant snoring; assay type: in vivo, human; conditions: 30 mg, 35 to 90 days (mean 61 days)
Procedure: An open label study was performed on 8 outpatients with significant snoring. The patients were treated with Prevacid 30 mg. for 30-90 days. The entry criteria were snoring with or without sleep apnea, documented by history, physical exam, and independent sleep lab studies. […] At baseline patients had all been placed on conservative nasal regimen with no improvement in their symptoms. […] At the end of treatment changes in global and spousal ratings of snoring were made along with investigator observations.
The demographics of the study group were eight males no females; a mean age of 50.6 years with a range of 32-70; a mean weight of 206 lbs with a range of 160-260; and there were 6 white, 1 black, and 1 Asian in the group. At baseline the investigator made the diagnosis of GERD in 4 patients. Spousal ratings of snoring were 3 moderate and 5 severe; 4 had moderate or severe sleep apnea; and all 8 had daytime sleepiness.
The duration of treatment ranged from 35 to 90 days with a mean of 61 days. At conclusion of the study, 7 of 8 patients had moderate or marked improvement in snoring. […] 8 of 8 patients had marked improvement in their sleep with less waking and less daytime fatigue.

[6] = tested on: heartburn symptoms and lesions caused by heartburn; conditions: according to the manufacturer AstraZeneca; cited from earlier work
[7] = especially at room temperature; cited from earlier work

CN/C(=N/CCSCc1nc[nH]c1C)NC#N [Tagamet (Cimetidine), cimetidine]
beneficial effect on snoring [1]: maintained

NC(N)=Nc1nc(CSCCC(N)=NS(N)(=O)=O)cs1 [Pepcid AC (Famotidine), famotidine]
beneficial effect on snoring [1]: maintained

COc1ccc2[nH]c([S+]([O-])Cc3ncc(C)c(OC)c3C)nc2c1 (stereo not drawn) [omeprazole, 5-methoxy-2-[[(4-methoxy-3,5-dimethyl-2-pyridinyl)methyl]sulfinyl]-1H-benzimidazole]
substance converted to degradation products [2]: about 6%

COCCCOc1ccnc(C[S+]([O-])c2nc3ccccc3[nH]2)c1C (stereo not drawn) [Rabeprazole sodium, 2-[[[4-(3-methoxypropoxy)-3-methyl-2-pyridinyl]-methyl]sulfinyl]-1H-benzimidazole sodium salt]
stability in acidic media [3]: rapidly degraded
stability under alkaline conditions [3]: more stable
solubility ([4]; chloroform): freely soluble
solubility ([4]; ethanol): freely soluble
solubility ([4]; ether): insoluble
solubility ([4]; ethyl acetate): freely soluble
solubility ([4]; methanol): very soluble
solubility ([4]; n-hexane): insoluble
solubility ([4]; water): very soluble

Cc1c(OCC(F)(F)F)ccnc1C[S+]([O-])c1nc2ccccc2[nH]1 (stereo not drawn) [Prevacid (Lansoprazole), 2-[[[3-methyl-4-(2,2,2-trifluoroethoxy)-2-pyridyl]methyl]sulfinyl]benzimidazole]
patients with marked improvement in their sleep with less waking and less daytime fatigue [5]: 8 of 8
patients with moderate or marked improvement in snoring [5]: 7 of 8
intensity of the patient's snoring (spouse's observation) ([1]; 15 mg once daily): gradual decline
throat scratchiness ([1]; 15 mg once daily, after beginning treatment): declined promptly
benefit on snoring sustained for the duration of dosing ([1]; 15 mg once daily, approximately 12 months): moderate to marked benefit
snoring after dosing was interrupted ([1]; dosing interrupted for several weeks): resumption of noticeable snoring intensity

COc1ccc2c(c1)nc([S@@+]([O-])Cc1ncc(C)c(OC)c1C)[n]2[Mg][n]1c([S@@+]([O-])Cc2ncc(C)c(OC)c2C)nc2cc(OC)ccc21.O.O.O [esomeprazole magnesium, bis(5-methoxy-2-[(S)-[(4-methoxy-3,5-dimethyl-2-pyridinyl)methyl]sulfinyl]-1H-benzimidazole-1-yl) magnesium trihydrate]
rates of healing of certain lesions caused by heartburn versus PRILOSEC [6]: higher rates of healing
reduction of heartburn symptoms versus PRILOSEC [6]: faster
stability in acidic media [3]: rapidly degrades
stability under alkaline conditions [3]: acceptable stability
solubility ([4]; water): slightly soluble

COc1ccc2[nH]c([S+]([O-])Cc3ncc(C)c(OC)c3C)nc2c1 (stereo not drawn) [Omeprazole form A, omeprazole]
thermodynamic stability versus omeprazole form B [7]: thermodynamically more stable
